System: CAPAN-1 xenografts
Experiment: CAPAN-1 xenografts, BRCA 2 deficient (−/−) compared with not deficient (+/+): single dose PLX038A or irinotecan, tumor volume
Format: in vivo, mice
Conditions: irinotecan 137 μg/kg single i.p.; FIGS. 4B vs 4C
Description: Female NCr nude mice (N CrTac:NCr-Foxnt1^nu; ˜6-7 weeks old) from Taconic Bioscience (Cambridge City, Ind.) were housed at the UCSF Preclinical Therapeutics Core vivarium (San Francisco, Calif.). All animal studies were carried out in accordance with UCSF Institutional Animal Care and Use Committee. Tumor xenografts were established by subcutaneous injection with MX-1 tumor cells (2×10^6 cells in 100 μl of serum free medium mixed 1:1 with Matrigel) into the right flank of female NCr nude mice.
Groups (N=4-5/group) were dosed when the group average reached 100-200 mm^3 in size. […] For groups receiving the combination, daily BMN673 dosing began on the same day (FIG. 3A) or after a 4-day delay (FIG. 3B) after dosing PLX038A. Tumor volumes (caliper measurement: 0.5×(length×width^2)) and body weights were measured twice weekly. When vehicle control tumors reached ˜3000 mm^3 in size, mice were treated with the combination of a single dose of PLX038A (15 μmol/kg) and daily BMN673 (0.4 μmol/kg) combination with no delay between dosing (FIG. 3A).
MX-1 cells are BRCA 1 deficient and CAPAN-1 cells are supplied as either BRCA 2 deficient (−/−) or not deficient (+/+).

CCc1c2c(nc3ccc(OC(=O)N4CCC(N5CCCCC5)CC4)cc13)-c1cc3c(c(=O)n1C2)COC(=O)[C@]3(O)CC [irinotecan]
effectiveness in BRCA 2 deficient vs non-deficient cells, irinotecan: enhanced

Source: patent publication US11730836B2, “Synergistic cancer treatment” (priority 2018, dated 2023)
